Experimental data as given in patent US20110251251A1, “POLYMORPH II OF AN ANTIFUNGAL COMPOUND” (FERRER INTERNACIONAL, S.A, priority 2008, published 2011).

Assays:
Assay type in all cases: physicochemical
[1] = Determination of apparent density and compacted density (Stampf STAV 2003 volumeter); conditions: for Compacted density: weight/final volume after 2500 strokes; for Apparent density: weight/initial volume
Description: The determination of apparent and compacted densities was carried out with a Stampf STAV 2003 volumeter equipped with a 100-mL glass volumetric flask.
• (i) The flask was filled with a volume between 50 and 100 mL of test sample. • (ii) The volume occupied before the test (mL) was recorded. • (iii) 2500 strokes were performed with the volumeter. • (iv) The volume occupied after the test (mL) was recorded. • (v) The amount of analyzed sample (g) was weighed.
• (i) Apparent density (g/mL)=weight/initial volume • (ii) Compacted density (g/mL)=weight/final volume

[2] = DTA / thermogravimetric analysis (weight loss)
Description: The necessary amounts were carefully weighed for completing ¾ parts of the 70-μl Al2O3 crucible provided with a perforated lid that was hermetically sealed. Then, the crucible was placed into the furnace and the experiment started. The samples were heated from […] at a rate of 5° C./min under a N2 stream, the flow rate being 80 mL/min. Mass loss rate was calculated in relation to baseline by horizontal tangent plot. […] The start of endothermic peak temperature occurred at 437.6° K, but the first recorded weight loss began at 449° K from DTA analysis. Polymorph II placed in a furnace at 423° K started decomposition after 2 hours.

[3] = Stability of polymorph II (humidity, temperature, polymorphic transition)
Description: The start of endothermic peak temperature occurred at 437.6° K, but the first recorded weight loss began at 449° K from DTA analysis. Polymorph II placed in a furnace at 423° K started decomposition after 2 hours.

| Compacted density ([1]; listed as Polymorph 1) | Compacted density ([1]; listed as polymorph I) | Apparent density ([1]; listed as Polymorph 1) | Apparent density ([1]; listed as polymorph I) | Compacted density [1] | Compacted density ([1]; listed as polymorph II) | Apparent density [1] | Apparent density ([1]; listed as polymorph II) | Temperature at which first recorded weight loss began [2] | Stability in 1-month test ([3]; 1-month test at ambient temperature or humidity) | Stability after 1 day ([3]; 1 day at 25° C./80 RH) | Transition from II to I ([3]; during 1-month test) | Stability at high temperature compared with polymorph I ([3]; high temperatures (higher than 80° C.)) | Stability against humidity ([3]; humidity) | Time to start of decomposition ([3]; placed in a furnace at 423° K) | Stability at temperature ([3]; temperature below 423° K) | SMILES |
| --- | --- | --- | --- | --- | --- | --- | --- | --- | --- | --- | --- | --- | --- | --- | --- | --- |
| 1.08 g/mL | 1.08 g/mL | 0.78 g/mL | 0.78 g/mL |  |  |  |  |  |  |  |  |  |  |  |  | Clc1ccc([C@H](Cn2ccnc2)OCc2csc3c(Cl)cccc23)c(Cl)c1 [Polymorph I, arasertaconazole mononitrate] |
|  |  |  |  | 0.53 g/mL | 0.53 g/mL | 0.39 g/mL | 0.39 g/mL | 449 ° K | remained stable | remained stable | No transition from II to I was observed | more stable at high temperature | stable | 2 h | stable | Clc1ccc([C@H](Cn2ccnc2)OCc2csc3c(Cl)cccc23)c(Cl)c1 [Polymorph II, arasertaconazole mononitrate] |
